For the test, the system named is AMPK (phospho-AMPK Thr-172). Put plainly: Level of expression of p-AMPK (Thr-172) in normal human epidermal keratinocytes, Western blotting. In kind it is cell-based. Particulars: for p-AMPK/AMPK ratio relative to the control (100%): 18 hours incubation; for p-AMPK/GAPDH ratio relative to the control (100%): 48 hours incubation. The protocol:
Normal human epidermal keratinocytes are seeded at 180 000 cells per well and cultured in SFM culture medium (supplier Gibco) supplemented with 0.25 ng/ml EGF, 25 μg/ml of pituitary extract and 25 μg/ml gentamicin, up to confluence, and incubated in a humid oven at 37° C. and 5% CO2. The culture medium was then replaced with test medium (SFM (Gibco) supplemented with 25 μg/ml gentamicin) containing or not containing (control) the test compounds, or the references (AICAR—(5-amino-4-imidazole carboxamide riboside) at 500 μM). The cells were then incubated for 18 or 48 hours. The level of expression of p-AMPK was analyzed by Western blotting. At the end of the incubation, the proteins were extracted and quantified and then separated by electrophoresis on 10% polyacrylamide gel and then transferred onto a nitrocellulose membrane. […] Between each successive revelation, the antibodies were detached using a “stripping” buffer. The images were acquired with a Fuji LAS 3000 chemiluminescence scanner (Fujifilm) and the densitometric analyses were performed using the Multigauge software (Fujifilm). An increase in the phosphorylated form of AMPK (active form of the enzyme) relative to the control is evaluated in this test. Results Expressed in the form of the p-AMPK/GAPDH ratio relative to the control (100%): […]

With `NC(=O)c1ncn([C@@H]2O[C@H](CO)[C@@H](O)[C@H]2O)c1N` [AICAR, 5-amino-4-imidazole carboxamide riboside, reference compound], where the note is “500 μM”, the “p-AMPK/AMPK ratio relative to the control (100%)” value was 177% ± 31% and the “p-AMPK/GAPDH ratio relative to the control (100%)” value is recorded as 279 ± 96%.

Take `COc1cc(CC(C)O)ccc1O` (stereo not drawn) [Compound 1]: the “p-AMPK/AMPK ratio relative to the control (100%)” value (500 μM) is 132% ± 11%.

On to `COc1cc(CC(O)CO)ccc1O` (stereo not drawn) [Compound 5], for which the “p-AMPK/GAPDH ratio relative to the control (100%)” value reads like this: (1 μM) 116 ± 17%; (10 μM) 149 ± 25%; (100 μM) 136 ± 14%.
